Measurements reported in patent US9296716B2, “Androgen receptor ligands” (THE PROVOST, FELLOWS, FOUNDATION SCHOLARS, & THE OTHER …, priority 2011, dated 2016).

What was measured:
Type in all cases: biochemical
[1] = molecular target: T1, Progesterone Receptor (PR) LBD (Homo sapiens, UniProt P06401); assay: TR-FRET SRC1-4 coactivator recruitment assay, PR LBD; details: Progesterone = EC80; for IC50: TR-FRET, ± SEM (n = 6), read-out: NR LBDs IC50 (μM) PR; for effect on PR LBD recruitment of fluorescent labelled SRC1-4 coactivator: maximal concentration of 100 μM
T1 construct: purchased Invitrogen PV4666
T1 sequence (P06401 679-913 limits assumed): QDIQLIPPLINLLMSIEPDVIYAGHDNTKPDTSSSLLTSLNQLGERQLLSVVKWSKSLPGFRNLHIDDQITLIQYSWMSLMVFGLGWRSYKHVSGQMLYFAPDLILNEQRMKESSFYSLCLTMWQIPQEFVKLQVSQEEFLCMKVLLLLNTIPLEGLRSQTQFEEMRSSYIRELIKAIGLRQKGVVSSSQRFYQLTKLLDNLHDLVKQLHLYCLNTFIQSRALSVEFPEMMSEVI
Method: (§1) Compound binding affinities for Progesterone Receptor (PR), Glucocorticoid Receptor (GR), Estrogen Receptor alpha and Estrogen Receptor beta were determined using TR-FRET (Table 2).
(§2) Lanthascreen TR-FRET AR Coactivator Assay kit (Invitrogen, cat no. PV4381) was used to screen for potential coactivator disruptors.
(§3) TR FRET values were calculated at 10 flashes per well, using a delay time of 100 μs and integration time 200 μs as recommended by the Invitrogen assay guidelines. […] A serial dilution of compounds was firstly prepared in 100×DMSO (Sigma-Aldrich) starting from the maximum desired concentration to achieve a 12 point range concentration using 96-well polypropylene plates (Nalgene Nunc, Rochester, N.Y.). Each 100× solution was diluted to 2× concentration with TR-FRET co-regulator buffer A (Invitrogen proprietary buffer), yielding a final concentration of 1% DMSO in each well.
(§4) D11-FxxLF and Tb antibody were premixed in light protecting vials prior to use. A final concentration of DTT 5 mM was used in the assay buffer in order to prevent protein degradation. All plates (agonist and antagonist mode) were incubated between 2 and 4 hours at room temperature protected from light prior to TR-FRET measurement. […] Data was fitted using the sigmoidal dose response (variable slope) available from Graphpad Prism 5. Y=Bottom+(Top-Bottom)/(1+10^((Log IC50−X)*HillSlope))
(§5) The same procedure was used for AR T877A (Invitrogen cat no. PV4667), PR (Invitrogen cat no. PV4666), ER-α (Invitrogen cat no. PV4544), ER-β (Invitrogen cat no. PV4541) and GR (Invitrogen cat no. PV4683). The assay was adapted to exclude possible non-specific aggregation mechanism of inhibition by adding very low concentration of detergent Triton X-100 (0.001%) to the assay buffer following the Shoichet review guidelines [Shoichet BK (2006) Screening in a spirit haunted world. Drug Discov Today 11:607-615].

AR-LBD wt = molecular target: T2, AR-LBD wt (Homo sapiens, UniProt P10275); assay: Lanthascreen TR-FRET AR coactivator (D11-FxxLF) assay, AR-LBD wt; details: for type of AR antagonism (full / partial): TR-FRET in agonist and antagonist mode; for IC50: TR-FRET, D11-FxxLF peptide, DHT = EC80, read-out: Activity (AR wt TR-FRET)
T2 sequence (P10275 669-900 limits assumed): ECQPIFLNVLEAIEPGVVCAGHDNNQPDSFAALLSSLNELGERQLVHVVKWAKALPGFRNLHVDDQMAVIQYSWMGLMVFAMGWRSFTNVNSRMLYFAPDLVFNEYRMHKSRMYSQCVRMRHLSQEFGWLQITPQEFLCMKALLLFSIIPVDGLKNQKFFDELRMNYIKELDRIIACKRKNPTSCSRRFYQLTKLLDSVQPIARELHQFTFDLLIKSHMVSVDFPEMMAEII

[2] = molecular target: T3, Glucocorticoid Receptor (GR) LBD (Homo sapiens, UniProt P04150); assay: TR-FRET SRC1-4 coactivator recruitment assay, GR LBD; details: Dexamethasone = EC80; for effect on SRC1-4 recruitment by GR LBD: 100 μM to 12.5 μM or single point 100 μM; for IC50: TR-FRET, ± SEM (n = 6), read-out: NR LBDs IC50 (μM) GR
T3 construct: purchased Invitrogen PV4683
T3 sequence (P04150 524-758 limits assumed): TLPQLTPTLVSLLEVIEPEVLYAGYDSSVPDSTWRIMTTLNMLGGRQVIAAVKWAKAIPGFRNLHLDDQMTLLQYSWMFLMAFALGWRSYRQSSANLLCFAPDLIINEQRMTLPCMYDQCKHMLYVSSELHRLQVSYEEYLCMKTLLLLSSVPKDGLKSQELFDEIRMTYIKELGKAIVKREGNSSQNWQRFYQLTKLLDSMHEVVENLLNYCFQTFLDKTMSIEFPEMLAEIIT
Method: as §1
Dexamethasone bound receptor recruitment of the fluorescently labelled SCR1-4 coactivator was unimpaired at screening concentrations up to 100 μM for all the diarylhydrazides evaluated (FIG. 5).
as §2, §3, §4, §5

[3] = molecular target: T4, Estrogen Receptor alpha (ER-α) LBD (Homo sapiens, UniProt P03372); assay: TR-FRET PGC1-α coactivator recruitment assay, ERα LBD; details: Estradiol = EC80; for IC50: TR-FRET, ± SEM (n = 6), read-out: NR LBDs IC50 (μM) ER-α; for effect on ERα LBD recruitment of fluorescent labelled PGC1-α coactivator: maximal concentration of 100 μM
T4 sequence (P03372 311-547 limits assumed): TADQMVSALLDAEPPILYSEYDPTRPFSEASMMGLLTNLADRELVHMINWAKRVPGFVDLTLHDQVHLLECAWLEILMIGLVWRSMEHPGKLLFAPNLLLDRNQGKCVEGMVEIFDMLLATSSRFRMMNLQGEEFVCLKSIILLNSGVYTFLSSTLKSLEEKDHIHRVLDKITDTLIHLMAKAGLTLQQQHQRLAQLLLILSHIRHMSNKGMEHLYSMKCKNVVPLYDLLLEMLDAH
Method: as §1
(§6) Selectivity of the diarylhydrazide scaffold for the AR was determined through a TR-FRET assay in ERα (FIGS. 8A & 9A1) and ERR (FIGS. 8B & 9A2). […] The non-LBP nature of this inhibition was confirmed by a FP assay (FIGS. 9C, 9B1 & 9B2).
as §2, §3, §4, §5

[4] = molecular target: Estrogen Receptor beta (ER-β) LBD (Homo sapiens, UniProt Q92731); assay: TR-FRET PGC1-α coactivator recruitment assay, ERβ LBD; details: Estradiol = EC80; for IC50: TR-FRET, ± SEM (n = 6), read-out: NR LBDs IC50 (μM) ER-β; for effect on ERβ LBD recruitment of fluorescent labelled PGC1-α coactivator: maximal concentration of 100 μM
Estrogen Receptor beta (ER-β) LBD, sequence (Q92731 264-498 limits assumed): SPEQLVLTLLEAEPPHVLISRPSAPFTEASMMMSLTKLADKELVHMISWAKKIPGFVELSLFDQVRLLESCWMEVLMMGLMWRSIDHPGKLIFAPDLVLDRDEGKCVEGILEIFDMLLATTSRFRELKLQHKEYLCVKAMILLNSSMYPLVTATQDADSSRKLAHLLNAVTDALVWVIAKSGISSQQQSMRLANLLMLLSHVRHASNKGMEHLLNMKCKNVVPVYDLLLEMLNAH
Method: as §1, §6, §2, §3, §4, §5

| SMILES | IC50 [1] [µM] | effect on PR LBD recruitment of fluorescent labelled SRC1-4 coactivator [1] | type of AR antagonism (full / partial) (AR-LBD wt) | IC50 (AR-LBD wt) [µM] | effect on SRC1-4 recruitment by GR LBD [2] | IC50 [2] [µM] | IC50 [3] [µM] | effect on ERα LBD recruitment of fluorescent labelled PGC1-α coactivator [3] | IC50 [4] [µM] | effect on ERβ LBD recruitment of fluorescent labelled PGC1-α coactivator [4] | effect on PR recruitment of fluorescent labelled SRC1-4 ([1]; 100 μM to 45 nM) | effect on ERα recruitment of fluorescent labelled PGC1-α ([3]; 100 μM to 45 nM) | effect on ERβ recruitment of fluorescent labelled PGC1-α ([4]; 100 μM to 45 nM) |
| --- | --- | --- | --- | --- | --- | --- | --- | --- | --- | --- | --- | --- | --- |
| O=C(N/N=C/c1cccc(Cl)c1)c1cc2ccccc2cc1O [MDG491] | 50 to 100 | inhibit | full AR antagonists | 42.7 ± 3.5 | do not affect | > 100 | > 100 | inhibit | > 100 | inhibit |  |  |  |
| CCCOc1ccc(/C=N/NC(=O)c2cc3c(ccc4ccccc43)o2)cc1 [MDG508] | 5.9 |  | full AR antagonists |  | do not affect | > 100 | 4 ± 1.4 |  | 2.9 |  | partially inhibit | partially inhibit | partially inhibit |
| O=C(N/N=C/c1cc(Cl)ccc1O)c1cc2ccccc2cc1O [MDG605] |  | inhibit | full AR antagonists | 10.3 ± 1.4 | do not affect | > 100 | 50 to 100 | inhibit | 50 to 100 | inhibit |  |  |  |
| O=C(N/N=C/c1ccccc1O)c1cc2ccccc2cc1O [MDG608] | > 100 | inhibit | full AR antagonists | 55.2 ± 19.2 | do not affect | > 100 | > 100 | inhibit |  | inhibit |  |  |  |
| O=C(N/N=C/c1cc(O)ccc1O)c1cc2ccccc2cc1O [MDG611] |  | inhibit | full AR antagonists | 39.9 ± 16.9 | do not affect | > 100 |  | inhibit |  | inhibit |  |  |  |
| COc1ccc(O)c(/C=N/NC(=O)c2cc3ccccc3cc2O)c1 [MDG612] | 50 to 100 | inhibit | full AR antagonists | 52.9 ± 13.5 | do not affect | > 100 |  | inhibit |  | inhibit |  |  |  |
| O=C(N/N=C/c1cc([N+](=O)[O-])ccc1O)c1cc2ccccc2cc1O [MDG614] |  | inhibit | full AR antagonists | 33.4 ± 4.7 | do not affect | > 100 | > 100 | inhibit | > 100 | inhibit |  |  |  |
| Cc1cccc(/C=N/NC(=O)c2cc3ccccc3cc2O)c1O [MDG616] |  | inhibit | full AR antagonists | 13.2 ± 2.8 | do not affect | > 100 |  | inhibit |  | inhibit |  |  |  |
| COc1cccc(/C=N/NC(=O)c2cc3ccccc3cc2O)c1O [MDG617] |  | inhibit | full AR antagonists | 12.2 ± 0.5 | do not affect | > 100 |  | inhibit |  | inhibit |  |  |  |
| COC(=O)c1ccc(O)c(/C=N/NC(=O)c2cc3ccccc3cc2O)c1 [MDG629] |  | inhibit | full AR antagonists | 60.8 | do not affect | > 100 |  | inhibit |  | inhibit |  |  |  |
| O=C(O)c1ccc(O)c(/C=N/NC(=O)c2cc3ccccc3cc2O)c1 [MDG630] |  | inhibit | full AR antagonists | 43.5 ± 3.7 | do not affect | > 100 |  | inhibit |  | inhibit |  |  |  |
